Test results from patent publication US9375000B2, “Pesticidal arylpyrrolidines” (Bayer Intellectual Property GmbH, priority 2011, dated 2016).

Experiments:
Format in all cases: in vivo
[1] = tested on: Cucurbit Leaf Beetle (Aulacophora femoralis); assay: Cucurbit leaf beetle (Aulacophora femoralis) cucumber leaf dip test; settings: after 7 days
Method in brief: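 Cucumber leaves dipped in compound formulated with DMF and polyoxyethylene alkyl phenyl ether, diluted in water, with ammonium salt or ammonium salt plus penetration enhancer at 1000 ppm added if necessary; dried leaves placed on sterilized soil with five second-instar larvae. Kept at 25° C; larval mortality counted after 7 days.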

[2] = tested on: Two-Spotted Spider Mite (Tetranychus urticae); assay: Two-spotted spider mite (Tetranychus urticae) spray test on kidney bean; settings: after 7 days
Description: Unless not mentioned otherwise, the test solutions were prepared as follows:
Solvent: 3 parts by weight Dimethylformamide
Emulsifier: 1 part by weight Polyoxyethylene alkyl phenyl ether
In order to make an appropriate formulation of an active compound, 1 part by weight of the active compound is mixed with the above mentioned amount of solvent and emulsifier and the mixture is diluted with water to a prescribed concentration. Ammonium salt or ammonium salt and penetration enhancer in a dosage of 1000 ppm are added to the desired concentration if necessary.
50 to 100 adult mites of Tetranychus urticae were inoculated to leaves of kidney bean at two-leaf stage planted in a pot of 6 cm in diameter. After one day, test solution at the appropriate concentration was sprayed thereon in a sufficient amount using a spray gun. After the spraying, the plant pot was placed inside a greenhouse, and after 7 days, the acaricidal activity was calculated. An acaricidal activity of 100% means that all mites were killed, whereas an acaricidal activity of 0% means that no mite was killed.

[3] = tested on: Larvae of Spodoptera litura; assay: Larvae of Spodoptera litura, method using artificial feeds; settings: artificial feed, after 7 days
Method in brief: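 Compound formulated in dimethylformamide with polyoxyethylene alkyl phenyl ether emulsifier, water-diluted and poured onto artificial diet. Five 3rd-instar Spodoptera litura larvae per cup, held at 25° C and 50-60% humidity. Mortality after 7 days expressed as pesticidal ratio.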

[4] = active compound concentration 20 ppm
[5] = active compound concentration 4 ppm
[6] = active compound concentration 100 ppm

O=C(NCc1ccc(N2CCC(c3cc(Cl)c(F)c(Cl)c3F)(C(F)(F)F)C2O)cc1C(F)(F)F)C1CC1 (stereo not shown) [A1-286]
insecticidal activity [1, 4]: 100% | acaricidal activity [2, 4]: 100% | insecticidal activity (pesticidal ratio) [3, 4]: 100%

C[S+]([O-])CC(=O)NCc1ccc(N2CCC(c3cc(C(F)(F)F)cc(C(F)(F)F)c3)(C(F)(F)F)C2O)nc1Br (mixture of isomers) [A3-164]
insecticidal activity [1, 5]: 100% | insecticidal activity [1, 4]: 100% | acaricidal activity [2, 4]: 98% | insecticidal activity (pesticidal ratio) [3, 5]: 100% | insecticidal activity (pesticidal ratio) [3, 4]: 100%

CSCC(=O)NCc1ccc(N2CCC(c3cc(C(F)(F)F)cc(C(F)(F)F)c3)(C(F)(F)F)C2O)nc1Br (mixture of isomers) [A3-163]
insecticidal activity [1, 5]: 100% | insecticidal activity [1, 4]: 100% | acaricidal activity [2, 4]: 100% | insecticidal activity (pesticidal ratio) [3, 5]: 100% | insecticidal activity (pesticidal ratio) [3, 4]: 100%

N#CCC(=O)NCc1ccc(N2CCC(c3cc(C(F)(F)F)cc(C(F)(F)F)c3)(C(F)(F)F)C2O)cc1C(F)(F)F (stereo not shown) [A1-528]
insecticidal activity [1, 5]: 100% | acaricidal activity [2, 5]: 98% | insecticidal activity (pesticidal ratio) [3, 5]: 100%

CSCC(=O)NCc1cnc(N2CCC(c3cc(C(F)(F)F)cc(C(F)(F)F)c3)(C(F)(F)F)C2O)nc1C(F)(F)F (stereo not shown) [A4-31]
insecticidal activity [1, 4]: 100% | acaricidal activity [2, 4]: 100% | insecticidal activity (pesticidal ratio) [3, 4]: 100%

Cc1nc(N2CCC(c3cc(Cl)c(Cl)c(Cl)c3)(C(F)(F)F)C2O)ccc1CNC(=O)C1CC1 (stereo not shown) [A3-82]
insecticidal activity [1, 4]: 100% | acaricidal activity [2, 4]: 100% | insecticidal activity (pesticidal ratio) [3, 4]: 100%

CS(=O)(=O)CC(=O)NCc1ccc(N2CCC(c3cc(Cl)cc(Cl)c3)(C(F)(F)F)C2O)cc1C(F)(F)F (stereo not shown) [A1-44]
insecticidal activity [1, 4]: 100% | acaricidal activity [2, 4]: 100% | insecticidal activity (pesticidal ratio) [3, 4]: 100%

CCC(=O)NCc1cnc(N2CCC(c3cc(Cl)c(Cl)c(Cl)c3)(C(F)(F)F)C2O)nc1C(F)F (stereo not shown) [A4-216]
insecticidal activity [1, 4]: 100% | acaricidal activity [2, 5]: 100% | insecticidal activity (pesticidal ratio) [3, 5]: 100%

COCCC(=O)NCc1ccc(N2CCC(c3cc(Cl)c(Cl)c(Cl)c3)(C(F)(F)F)C2O)nc1C(F)(F)F (stereo not shown) [A3-19]
insecticidal activity [1, 5]: 100% | insecticidal activity [1, 4]: 100% | acaricidal activity [2, 5]: 100% | acaricidal activity [2, 4]: 100% | insecticidal activity (pesticidal ratio) [3, 5]: 100% | insecticidal activity (pesticidal ratio) [3, 4]: 100%

C[S+]([O-])CC(=O)NCc1ccc(N2CCC(c3cc(Cl)cc(Cl)c3)(C(F)(F)F)C2O)cc1C(F)(F)F (stereo not shown) [A1-43]
insecticidal activity [1, 4]: 100% | acaricidal activity [2, 4]: 100% | insecticidal activity (pesticidal ratio) [3, 4]: 100%

O=C(NCc1ccc(N2CCC(c3cc(Cl)c(Cl)c(Cl)c3)(C(F)(F)F)C2O)cc1F)C1CC1 (mixture of isomers) [A1-154]
insecticidal activity [1, 4]: 100% | acaricidal activity [2, 4]: 100% | insecticidal activity (pesticidal ratio) [3, 4]: 100%

CCC(=O)NCc1cnc(N2CCC(c3cc(C(F)(F)F)cc(C(F)(F)F)c3)(C(F)(F)F)C2O)nc1C(F)(F)F (stereo not shown) [A4-24]
insecticidal activity [1, 4]: 100% | acaricidal activity [2, 4]: 100% | insecticidal activity (pesticidal ratio) [3, 4]: 100%

O=C(NCc1ccc(N2CCC(c3cc(Cl)c(Cl)c(Cl)c3)(C(F)(F)F)C2O)nc1Br)C1CC1 (stereo not shown) [A3-115]
insecticidal activity [1, 4]: 100% | acaricidal activity [2, 4]: 100% | insecticidal activity (pesticidal ratio) [3, 4]: 100%

CCC(=O)NCc1ccc(N2CCC(c3cc(Cl)c(Cl)c(Cl)c3)(C(F)(F)F)C2O)cc1C(F)(F)F (stereo not shown) [A1-46]
insecticidal activity [1, 4]: 100% | acaricidal activity [2, 4]: 100% | insecticidal activity (pesticidal ratio) [3, 4]: 100%

O=C(NCc1ccc(N2CCC(c3cc(Cl)c(F)c(Cl)c3)(C(F)(F)F)C2O)nc1C(F)(F)F)C1CC1 (mixture of isomers) [A3-203]
insecticidal activity [1, 4]: 100% | acaricidal activity [2, 4]: 100% | insecticidal activity (pesticidal ratio) [3, 4]: 100%

CCC(=O)NCc1ccc(N2CCC(c3cc(Cl)c(Cl)c(Cl)c3)(C(F)(F)F)C2O)cc1Cl (stereo not shown) [A1-13]
insecticidal activity [1, 4]: 100% | acaricidal activity [2, 4]: 100% | insecticidal activity (pesticidal ratio) [3, 4]: 100%

O=C(NCc1ccc(N2CCC(c3cc(Cl)cc(Cl)c3)(C(F)(F)F)C2O)nc1C(F)(F)F)C1CC1 (stereo not shown) [A3-5]
insecticidal activity [1, 4]: 100% | acaricidal activity [2, 4]: 100% | insecticidal activity (pesticidal ratio) [3, 4]: 100%

O=C(NCc1ccc(N2CCC(c3cc(Cl)cc(Cl)c3)(C(F)(F)F)C2O)cc1C(F)(F)F)C1CC1 (stereo not shown) [A1-38]
insecticidal activity [1, 4]: 100% | acaricidal activity [2, 4]: 100% | insecticidal activity (pesticidal ratio) [3, 4]: 100%

O=C(CC(F)(F)F)NCc1ccc(N2CCC(c3cc(C(F)(F)F)cc(C(F)(F)F)c3)(C(F)(F)F)C2O)nc1C(F)(F)F (stereo not shown) [A3-29]
insecticidal activity [1, 4]: 100% | acaricidal activity [2, 4]: 100% | insecticidal activity (pesticidal ratio) [3, 4]: 100%

O=C(NCc1ccc(N2CCC(c3cc(Cl)cc(Cl)c3)(C(F)(F)F)C2O)cc1C(F)(F)F)C1CCC1 (stereo not shown) [A1-361]
insecticidal activity [1, 4]: 100% | acaricidal activity [2, 4]: 100% | insecticidal activity (pesticidal ratio) [3, 4]: 100%

O=C(CC(F)(F)F)NCc1ccc(N2CCC(c3cc(Cl)cc(Cl)c3)(C(F)(F)F)C2O)cc1Cl (stereo not shown) [A1-7]
insecticidal activity [1, 4]: 100% | acaricidal activity [2, 4]: 100% | insecticidal activity (pesticidal ratio) [3, 4]: 100%

COCCC(=O)NCc1cnc(N2CCC(c3cc(C(F)(F)F)cc(C(F)(F)F)c3)(C(F)(F)F)C2O)nc1C(F)(F)F (stereo not shown) [A4-30]
insecticidal activity [1, 4]: 100% | acaricidal activity [2, 4]: 100% | insecticidal activity (pesticidal ratio) [3, 4]: 100%

CC(NC(=O)C1CC1)c1ccc(N2CCC(c3cc(Cl)c(Cl)c(Cl)c3)(C(F)(F)F)C2O)cc1 (mixture of isomers) [A2-16]
insecticidal activity [1, 4]: 100% | acaricidal activity [2, 4]: 100% | insecticidal activity (pesticidal ratio) [3, 4]: 100%

CCC(=O)NCc1ccc(N2CCC(c3cccc(C(F)(F)F)c3)(C(F)(F)F)C2O)nc1C(F)(F)F (racemic) [A3-222]
insecticidal activity [1, 4]: 100% | acaricidal activity [2, 4]: 100% | insecticidal activity (pesticidal ratio) [3, 4]: 100%

CC(=O)NCc1ccc(N2CCC(c3cc(Cl)cc(Cl)c3F)(C(F)(F)F)C2O)nc1C(F)(F)F (stereo not shown) [A3-344]
insecticidal activity [1, 5]: 100% | acaricidal activity [2, 4]: 100% | insecticidal activity (pesticidal ratio) [3, 5]: 100%

CS(=O)(=O)CC(=O)NCc1ccc(N2CCC(c3cc(C(F)(F)F)cc(C(F)(F)F)c3)(C(F)(F)F)C2O)cc1Cl (stereo not shown) [A1-33]
insecticidal activity [1, 4]: 100% | acaricidal activity [2, 4]: 100% | insecticidal activity (pesticidal ratio) [3, 4]: 100%

CCC(=O)NCc1ccc(N2CCC(c3cc(Cl)c(F)c(Cl)c3)(C(F)(F)F)C2O)nc1C(F)(F)F (mixture of isomers) [A3-200]
insecticidal activity [1, 4]: 100% | acaricidal activity [2, 4]: 100% | insecticidal activity (pesticidal ratio) [3, 4]: 100%

CC(C)(C)OC(=O)NCc1ccc(N2CCC(c3cc(Cl)c(Cl)c(Cl)c3)(C(F)(F)F)C2O)cc1 (stereo not shown) [A1-575]
insecticidal activity [1, 6]: 100% | acaricidal activity [2, 6]: 98% | insecticidal activity (pesticidal ratio) [3, 6]: 80%

CC(=O)NCc1ccc(N2CCC(c3cc(Cl)c(F)c(Cl)c3F)(C(F)(F)F)C2O)cc1Br (stereo not shown) [A1-429]
insecticidal activity [1, 5]: 100% | acaricidal activity [2, 4]: 100% | insecticidal activity (pesticidal ratio) [3, 5]: 100%

CCc1nc(N2CCC(c3cc(C(F)(F)F)cc(C(F)(F)F)c3)(C(F)(F)F)C2O)ccc1CNC(=O)C1CC1 (stereo not shown) [A3-137]
insecticidal activity [1, 4]: 100% | acaricidal activity [2, 4]: 100% | insecticidal activity (pesticidal ratio) [3, 4]: 100%

CS(=O)(=O)CC(=O)NCc1ccc(N2CCC(c3cc(Cl)c(Cl)c(Cl)c3)(C(F)(F)F)C2O)nc1C(F)(F)F (stereo not shown) [A3-22]
insecticidal activity [1, 4]: 100% | acaricidal activity [2, 4]: 100% | insecticidal activity (pesticidal ratio) [3, 4]: 100%

Cc1cc(N2CCC(c3cc(Cl)c(Cl)c(Cl)c3)(C(F)(F)F)C2O)ccc1CNC(=O)C1CC1 (mixture of isomers) [A1-132]
insecticidal activity [1, 4]: 100% | acaricidal activity [2, 4]: 100% | insecticidal activity (pesticidal ratio) [3, 4]: 100%

CCC(=O)NCc1ccc(N2CCC(c3cc(Cl)c(Cl)c(Cl)c3)(C(F)(F)F)C2O)cc1Br (stereo not shown) [A1-162, N-{2-bromo-4-[2-hydroxy-3-(3,4,5-trichlorophenyl)-3-(trifluoromethyl)pyrrolidin-1-yl]benzyl}propanamide]
pest or weed control at 20 ppm ([1]; Aulacophora, foliar, 168 h, active compound concentration 20 ppm, read-out: insecticidal activity): 100% | pest or weed control at 20 ppm ([2]; Tetranychus urticae, 168 h, active compound concentration 20 ppm, read-out: acaricidal activity): 100% | pest or weed control at 20 ppm ([3]; Spodoptera litura, 168 h, active compound concentration 20 ppm, read-out: insecticidal activity (pesticidal ratio)): 100%

CC(=O)NCc1ccc(N2CCC(c3cc(Cl)c(Cl)c(Cl)c3)(C(F)(F)F)C2O)nc1C(F)(F)F (stereo not shown) [A3-12]
insecticidal activity [1, 4]: 100% | acaricidal activity [2, 4]: 100% | insecticidal activity (pesticidal ratio) [3, 4]: 100%

CCC(=O)NCc1ccc(N2CCC(c3cc(C(F)(F)F)cc(C(F)(F)F)c3)(C(F)(F)F)C2O)cc1C (mixture of isomers) [A1-184]
insecticidal activity [1, 4]: 100% | acaricidal activity [2, 4]: 100% | insecticidal activity (pesticidal ratio) [3, 4]: 100%
